Data from US9617311B2, “Use of PEDF-derived polypeptides for promoting stem cells proliferation and wound healing” (Mackay Memorial Hospital, priority 2011, dated 2017).

How the values were obtained:
[1] = test system: limbal epithelial stem cells (LSCs); assay: In vitro LSC proliferation, BrdU pulse-labeling with ΔNp63α immunostaining; assay type: cell-based, New Zealand white rabbits; conditions: BrdU 2 hours; for percentage of BrdU and ΔNp63α-double positive cells per total ΔNp63α-positive cells: 25 nM peptide or 4.5 nM PEDF in medium, control medium 3.0±0.5%, mean±SEM
Text: LSCs were isolated from six-month-old New Zealand white rabbits and used for cell-suspension culture in accordance with the method previously described by Cheng et al. (The growth-promoting effect of KGF on limbal epithelial cells is mediated by upregulation of DeltaNp63alpha through the p38 pathway. J Cell Sci 2009; 122 (Pt 24): 4473-4480) and Wang et al. (Importin 13 serves as a potential marker for corneal epithelial progenitor cells. Stem Cells 2009; 27: 2516-2526) with a slight modification. Rabbit limbal tissues were washed in PBS containing 100 U/ml penicillin and 50 μg/ml gentamicin. After carefully removing the iris, and excessive sclera, the limbal rings were exposed to dispase II (1.2 IU/ml in Hanks' balanced salt solution free of Mg^2+ and Ca^2+) at 4° C. for 16 hours. The loosened epithelial sheets were removed with a cell scraper and separated into single cells by enzymatic digestion (0.05% trypsin, and 0.01% EDTA) for 15 min at 37° C. with gentle shaking and transferred to a stop medium (9 ml of HEPES-buffered DMEM containing 10% FBS). Cells were then collected by centrifugation (400×g for 5 min).
About 1×10^5 cells were seeded on each wells of a 6-well plate and incubated in a DMEM/Ham's F-12 basal medium (10 mM HEPES, 5 ng/ml human EGF, 1% SITE liquid medium, antibiotic-antimicotic solutions, 0.5% DMSO and 0.5 μg/ml hydrocortisone) supplemented with 10% FBS for 2 days, and then shifted to a basal medium or basal medium containing 4.5 nM PEDF, 25 nM 39-mer, 25 nM 34-mer, 25 nM 29-mer, 25 nM 25-mer, 25 nM 20-mer, 25 nM 18-mer, 25 nM Mo 29-mer or 25-nM Mo 20-mer. The cells were continued cultivated at 37° C. under 5% CO2 for another 3 days until they reached confluence (passage 0). LSCs were co-cultured with MMC-treated NIH-3T3 fibroblast feeder cells located within trans-well (0.4 μm pore, BD Biosciences, Bedford, Mass.). For passage purpose, near-confluent cells were harvested again by enzymatic treatment (i.e., 0.25% trypsin), and then 1×10^5 subcultured cells were further cultured in the respective medium, and proliferative capacity of cells was compared every 4 days after continuously culture-subculture (passage).
De-paraffinized tissue sections or 4% paraformaldehyde-fixed LSCs were blocked with 10% goat serum and 5% BSA in PBST (PBS containing 0.1% Tween-20) for 1 hour. Staining was done using primary antibodies against ΔNp63α (1:150 dilution), BrdU (1:250 dilution), and keratin-3 (1:250 dilution) at 37° C. for 2 hours, followed by incubation with the appropriate rhodamine- or FITC-conjugated donkey IgG (1:500 dilution) for 1 hour at RT. Nuclei were identified by counterstaining with Hoechst 33258 for 7 minutes. Images were captured using a Zeiss epifluorescence microscope with a CCD camera and photographs were taken by using the Axiovert software.
2×10^5 limbal cells (the 1st passage) were seeded at a slide coated with FNC COATING MIX® solution (Athena Enzyme Systems, Baltimore, Md.) and incubated with a culture medium for one day. BrdU (final, 10 μM) was added to the culture for 2 hours. After being fixed with 4% paraformaldehyde, cells were exposed to cold methanol for 2 minutes, and then treated with 1 N HCl at RT for 1 hour before performing immunofluorescence. For animal study, BrdU was reconstituted in DMSO as stock (80 mM). 10 μl of BrdU mixed with 90 μl of PBS was intraperitoneally injected into mouse 3 hours prior to euthanasia. DNA synthesis was assessed by BrdU labeling with anti-BrdU antibodies.

corneal wound = assay: Corneal wound healing in mice, fluorescein staining; assay type: in vivo, C57BL/6 mice; conditions: for corneal re-epithelialization after 48 hours: 20 μl eye ointment with 50 μM peptide once a day, 2 mm wound; for residual epithelial defect, percentage of the original wound: 50 μM peptide eye ointment once a day
Description: The experiments were performed using eight-week-old female C57BL/6 mice, and the procedures were approved by the Mackay Memorial Hospital Review Board for animal investigation. Animals were anesthetized by an intraperitoneal injection of a mixture of zoletil (6 mg/kg) and xylazine (3 mg/kg). One filter paper (0.9 mm diameter) soaked with 20% ethanol was placed on the central cornea of right eye for one minute and then irrigated extensively with PBS. Subsequently, mechanical epithelial scrape was performed using a punch under a dissection microscope to create a circular injury (2 mm diameter) at the entire corneal region of the mouse eye without encroaching the corneal stroma, limbus or conjunctiva.
Each synthetic peptide (the 39-mer, 34-mer, 29-mer, 25-mer, 20-mer, 18-mer, Mo 29-mer or Mo 20-mer) was reconstituted in DMSO as stock (5 mM) and mixed with TOBREX® eye ointment (Alcon; containing 0.3% Tobramycin and 0.5% Chlorobutanol) to a concentration 50 μM. In each of the treatment group (n=6-10), the right eye was treated with 20 μl eye ointment containing the synthetic peptide once a day after the scrape injury. In the control group (n=20), right eye was treated with 20 μl of eye ointment mixed with vehicle DMSO. Wound size was determined by staining with topical fluorescein (Fluor-I-Strip, Ayerst Laboratories, Philadelphia, Pa.) and photographed with a digital camera. The area of defect was quantified from the photographs using a computer-assisted image analyzer (Adobe Photoshop CS3 10.0) and was calculated as the percentage of residual epithelial defect at each time point/initial wound area.
To investigate the effect of PEDF-derived short peptides on corneal wound healing in mice, corneal wound was created by a circular punch (2 mm diameter), then control eye-ointment or eye-ointment containing the short synthetic PEDF peptide(s) of this invention was applied to the wounded eye, and wound healing was subsequently evaluated by fluorescein staining. No significant differences in the size of the initial abrasion were noted between synthetic PEDF peptide-treated and control mice.

[2] = test system: full-thickness skin excisional wounds; assay: Skin wound healing in mice, wound area from photographs; assay type: in vivo, C57L/B6 mice; conditions: for residual epithelial defects, percentage of the original wound: 25 μl skin ointment with 50 μM peptide once daily
Description: FIG. 6A provides photographs and FIG. 6B is a histogram, and together, they illustrate the skin (epithelial) wound-healing of mice from treatment groups according to another example of the present disclosure. 4 mm punch wounds were made on the dorsal side of C57/B6 mice. Skin ointment was treated once a day. Photographs of the wounded skin and ruler (scale 10 mm) were captured with a CCD camera (Olympus). The residual epithelial defect (%) is presented as percentage of the original wound. Data are shown as mean±SE.
To perform full-thickness skin excision, 8- to 10-week-old C57L/B6 mice were respectively anesthetized by an intraperitoneal injection of a mixture of zoletil (6 mg/kg) and xylazine (3 mg/kg). Two full-thickness skin excisional wounds, 4 mm in diameter were made on either side of the dorsal midline using Sklar Tru-Punch disposable biopsy punch (Sklar, West Chester, Pa., USA). In each treatment group (n=6), the skin wound was treated with 25 μl skin ointment (containing 50 μM synthetic peptide and 0.006 μl DMSO vehicle) once daily after the skin scraping. In the control group (n=6), skin wound was treated with 25 μl of skin ointment with equal concentration of DMSO. Each gram of the above skin ointment contains 5 mg neomycin sulfate and 12.5 mg Bacitracin Zinc. Wounds were left uncovered and harvested 4 and 7 days after injury. Mice were housed individually during the healing period.
The area of wound was quantified from the photographs using a computer-assisted image analyzer (Adobe Photoshop CS3 10.0) and was calculated as the percentage of residual epithelial defect at each time point/initial wound area.

[3] = test system: hair follicle stem cells (HFSCs); assay: In vitro HFSC proliferation, BrdU pulse-labeling with Lgr6 immunostaining; assay type: cell-based, Human; conditions: 50 nM peptide or 4.5 nM PEDF in medium; BrdU 2 hours; control 31.9±5.6%
Description: FIG. 5A provides immunofluorescence microscopy photographs and FIG. 5B is a histogram, and together, they illustrate the in vitro proliferation of HFSCs from treatment groups according to one example of the present disclosure. HFSC proliferation was determined by BrdU labeling for 2 hours. HFSCs (Lgr6, green) and BrdU (red) were detected by immunofluorescence microscopy (original magnification, ×1000). Twenty randomly selected fields in each group were photographed, and the percentage of BrdU and Lgr6-double positive cells (pale pink) per total Lgr6-positive cells was calculated. *P<0.001 versus untreated cells.
Human hair follicles were collected from hairs of healthy donors. The follicles were dissected with tweezers under microscope and most of adipose and connective tissue was removed. The bulge region of hair follicle under the sebaceous gland was cut and then bulge fragments (including central isthmus) were transferred into a 35-mm dish containing 1 ml of collagenase A (1 mg/ml; Roche) and incubated for 1.5 hours at 37° C. to digest the collagen capsule. Subsequently, the bulge fragments were transferred into a fresh cell culture dish containing dispase II (2.4 U/ml)/0.05% trypsin and further incubated for 1.5 hours at 37° C. to obtain a single cell suspension.
After mechanical dissection and enzymatic digestion, the suspended bulge cells isolated from five bulge fragments were seeded into a well of 12-well culture plate and incubated with the basal medium for 5 days to facilitate cell adhesion. The basal medium contains four parts Gibco calcium-free Dulbecco's modified Eagle's medium (DMEM) and one part Ham's F12 medium (calcium concentration reached about 0.25 mM) and supplemented with 10% FBS, 10 ng/ml human epidermal growth factor, 500 mg/I L-glutamine, 0.2% bovine pituitary extract, […] hydrocortisone, 1% ITSE as well as antibiotic-antimicotic solutions. Cultivation method was similar to that of Blazejewska et al. (Stem Cells 2009; 27:642). After 5 days of incubation, cells were cultured in the serum-free basal medium or basal medium containing 4.5 nM PEDF, 50 nM 29-mer, or 50 nM 20-mer, until near confluence (about 2 weeks; passage 0). The medium was changed every 2 to 3 days. The bulge cells were co-cultured with 3T3 fibroblast feeder cells. For passage, near-confluent cells were harvested by enzymatic treatment (i.e., 0.25% trypsin) for 5 min at 37° C. Approximately 1×10^5 human bulge cells were transferred to a new dish and allowed to grow for 14 days to near confluence (passage 1). […]

[4] = day 4 post-injury, control 61.5±3.2%
[5] = day 7 post-injury, control 44.5±5.3%

Molecule | enhanced LSC proliferation versus control medium ([1]; 25 nM peptide in medium) | corneal re-epithelialization after 48 hours (corneal wound) | promotion of skin wound healing ([2]; days 4 and 7, 50 μM peptide skin ointment once daily) | percentage of BrdU and ΔNp63α-double positive cells per total ΔNp63α-positive cells [1] | residual epithelial defect, percentage of the original wound (corneal wound; 24 hours, control 84.9±5.1%) | residual epithelial defect, percentage of the original wound (corneal wound; 48 hours, control 39.5±3.1%) | residual epithelial defects, percentage of the original wound [2, 4] | residual epithelial defects, percentage of the original wound [2, 5] | percentage of BrdU and Lgr6-double positive cells per total Lgr6-positive cells [3]
EQRTESIIHRALYYDLISSPDIHGT [25-mer] | enhanced proliferation was not observed | incompletely healed wounds | not able to promote wound healing |  |  |  |  |  | 
ALSALSLGAEQRTESIIHRALYYDLISSPDIHGT [34-mer, short synthetic PEDF peptide derived from the 39-mer] |  | complete corneal re-epithelialization |  | 30.0±3.4% | 40.6±7.2% | 4.6±2.1% | 41.4±2.5% | 17.9±6.1% | 
LSVATALSALSLGAEQRTESIIHRALYYDLISSPDIHGT [39-mer, synthetic peptide, residues 83-121 of human PEDF] |  | complete corneal re-epithelialization |  | 30.1±1.9% | 37.2±4.3% | 4.8±2.7% | 48.1±3.2% | 18.4±5.7% | 
full-length PEDF: Native human pigment epithelium-derived factor purified from human plasma via collagen I-sepharose resin (protein, listed as Homo sapiens) MQALVLLLCIGALLGHSSCQNPASPPEEGSPDPDSTGALVEEEDPFFKVPVNKLAAAVSNFGYDLYRVRSSTSPTTNVLLSPLSVATALSALSLGAEQRTESIIHRALYYDLISSPDIHGTYKELLDTVTAPQKNLKSASRIVFEKKLRIKSSFVAPLEKSYGTRPRVLTGNPRLDLQEINNWVQAQMKGKLARSTKEIPDEISILLLGVAHFKGQWVTKFDSRKTSLEDFYLDEERTVRVPMMSDPKAVLRYGLDSDLSCKIAQLPLTGSMSIIFFLPLKVTQNLTLIEESLTSEFIHDIDRELKTVQAVLTVPKLKLSYEGEVTKSLQEMKLQSLFDSPDFSKITGKPIKLTQVEHRAGFEWNEDGAGTTPSPGLQPAHLTFPLDYHLNQPFIFVLRDTDTGALLFIGKILDPRGP |  |  |  | 22.0±1.5% |  |  |  |  | 73.8±6.0%
